Measurements published in ChEMBL document CHEMBL4739710, “Tetrahydropyridopyrazines as modulators of GPR6” (2020).

Target: G-protein coupled receptor 6 (Homo sapiens, UniProt P46095)
Assay: Modulation of GPR6 (unknown origin) expressed in CHO-K1 cells assessed as inhibition of constitutive cAMP activity by HTRF assay
Type: functional, cell-based

G-protein coupled receptor 6, sequence (P46095 whole entry): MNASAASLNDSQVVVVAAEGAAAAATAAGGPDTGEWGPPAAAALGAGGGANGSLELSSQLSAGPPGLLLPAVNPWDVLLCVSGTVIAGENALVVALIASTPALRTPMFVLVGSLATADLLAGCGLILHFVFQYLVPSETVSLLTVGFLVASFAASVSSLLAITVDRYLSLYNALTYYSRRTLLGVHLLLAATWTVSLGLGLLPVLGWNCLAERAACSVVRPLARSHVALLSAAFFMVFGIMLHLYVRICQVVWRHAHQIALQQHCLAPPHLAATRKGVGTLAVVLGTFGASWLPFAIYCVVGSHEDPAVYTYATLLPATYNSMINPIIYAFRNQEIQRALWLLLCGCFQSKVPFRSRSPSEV

EC50: 47.9 nM
SMILES: Cc1cc2nc(N[C@@H]3CCOC3)c(N3CCN(Cc4ccc(F)cc4F)CC3)nc2cn1
